Test results reported in the supplement of paper PMC10307832.

How the values were obtained:
Assay in all cases: relative viability (nuclei count vs DMSO), 5 days (fraction); higher = more cells survive
[1] = tested on: NCI-H727
Summary of the method: (§1)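 Values are medians from duplicate plates. Each reflects relative viability, defined as the nuclei count of treated wells over that of vehicle wells. Lung cancer cell lines in 1536-well plates were pin-tool dosed one day after seeding with one drug alone or with a fixed anchor-drug dose plus five library-drug doses (not always all listed) in √10 steps, then fixed, stained and imaged at 4× after 5 days.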

[2] = tested on: NCI-H1650
Summary of the method: as §1

[3] = tested on: NCI-H2228
Summary of the method: as §1

[4] = tested on: NCI-H23
Summary of the method: as §1

[5] = tested on: NCI-H1755
Summary of the method: as §1

[6] = tested on: NCI-H1703
Summary of the method: as §1

[7] = tested on: NCI-H1975
Summary of the method: as §1

[8] = tested on: NCI-H358
Summary of the method: as §1

[9] = tested on: NCI-H596
Summary of the method: as §1

[10] = tested on: NCI-H460
Summary of the method: as §1

[11] = tested on: LCLC-97TM1
Summary of the method: as §1

[12] = tested on: NCI-H1993
Summary of the method: as §1

[13] = tested on: HCC-78
Summary of the method: as §1

[14] = tested on: NCI-H1944
Summary of the method: as §1

[15] = tested on: NCI-H2126
Summary of the method: as §1

[16] = tested on: LK-2
Summary of the method: as §1

[17] = tested on: NCI-H1355
Summary of the method: as §1

[18] = tested on: PC-3 [JPC-3]
Summary of the method: as §1

[19] = tested on: NCI-H1734
Summary of the method: as §1

Cc1cn(-c2cc(NC(=O)c3ccc(C)c(Nc4nccc(-c5cccnc5)n4)c3)cc(C(F)(F)F)c2)cn1 [Nilotinib] + CS(=O)(=O)CCNCc1ccc(-c2ccc3ncnc(Nc4ccc(OCc5cccc(F)c5)c(Cl)c4)c3c2)o1 [Lapatinib] (partner 2 µM)
relative viability ([1]; first compound 0.001 µM): 0.858
relative viability ([1]; first compound 0.01 µM): 0.985
relative viability ([1]; first compound 0.03162 µM): 0.591
relative viability ([1]; first compound 0.1 µM): 0.368
relative viability ([2]; first compound 0.001 µM): 0.851
relative viability ([2]; first compound 0.003162 µM): 0.931
relative viability ([2]; first compound 0.01 µM): 0.917
relative viability ([2]; first compound 0.03162 µM): 0.668
relative viability ([2]; first compound 0.1 µM): 0.424
relative viability ([3]; first compound 0.001 µM): 1.03
relative viability ([3]; first compound 0.003162 µM): 1.25
relative viability ([3]; first compound 0.01 µM): 1.13
relative viability ([3]; first compound 0.03162 µM): 1.01
relative viability ([3]; first compound 0.1 µM): 0.285
relative viability ([4]; first compound 0.001 µM): 1.01
relative viability ([4]; first compound 0.003162 µM): 1.13
relative viability ([4]; first compound 0.01 µM): 1.4
relative viability ([4]; first compound 0.03162 µM): 0.87
relative viability ([4]; first compound 0.1 µM): 0.704
relative viability ([5]; first compound 0.001 µM): 1.02
relative viability ([5]; first compound 0.003162 µM): 1.35
relative viability ([5]; first compound 0.01 µM): 1.43
relative viability ([5]; first compound 0.03162 µM): 0.986
relative viability ([5]; first compound 0.1 µM): 0.551
relative viability ([6]; first compound 0.003162 µM): 0.738
relative viability ([6]; first compound 0.01 µM): 0.567
relative viability ([6]; first compound 0.03162 µM): 0.208
relative viability ([6]; first compound 0.1 µM): 0.227
relative viability ([7]; first compound 0.001 µM): 0.859
relative viability ([7]; first compound 0.003162 µM): 1.18
relative viability ([7]; first compound 0.01 µM): 0.894
relative viability ([7]; first compound 0.03162 µM): 0.658
relative viability ([7]; first compound 0.1 µM): 0.433
relative viability ([8]; first compound 0.001 µM): 0.442
relative viability ([8]; first compound 0.003162 µM): 0.529
relative viability ([8]; first compound 0.01 µM): 0.539
relative viability ([8]; first compound 0.03162 µM): 0.438
relative viability ([8]; first compound 0.1 µM): 0.325
relative viability ([9]; first compound 0.001 µM): 1.01
relative viability ([9]; first compound 0.003162 µM): 1.15
relative viability ([9]; first compound 0.01 µM): 1.09
relative viability ([9]; first compound 0.03162 µM): 0.984
relative viability ([9]; first compound 0.1 µM): 0.88
relative viability ([10]; first compound 0.001 µM): 0.521
relative viability ([10]; first compound 0.03162 µM): 0.378
relative viability ([10]; first compound 0.1 µM): 0.0571
relative viability ([11]; first compound 0.001 µM): 0.777
relative viability ([11]; first compound 0.003162 µM): 1.05
relative viability ([11]; first compound 0.01 µM): 1.12
relative viability ([11]; first compound 0.03162 µM): 1.16
relative viability ([11]; first compound 0.1 µM): 0.268
relative viability ([12]; first compound 0.001 µM): 0.797
relative viability ([12]; first compound 0.003162 µM): 0.863
relative viability ([12]; first compound 0.01 µM): 0.77
relative viability ([12]; first compound 0.03162 µM): 0.874
relative viability ([12]; first compound 0.1 µM): 0.651
relative viability ([13]; first compound 0.001 µM): 0.889
relative viability ([13]; first compound 0.003162 µM): 0.718
relative viability ([13]; first compound 0.01 µM): 0.779
relative viability ([13]; first compound 0.03162 µM): 0.491
relative viability ([13]; first compound 0.1 µM): 0.571
relative viability ([14]; first compound 0.001 µM): 0.894
relative viability ([14]; first compound 0.003162 µM): 0.996
relative viability ([14]; first compound 0.01 µM): 0.742
relative viability ([14]; first compound 0.03162 µM): 1.03
relative viability ([14]; first compound 0.1 µM): 0.389
relative viability ([15]; first compound 0.001 µM): 0.729
relative viability ([15]; first compound 0.003162 µM): 0.813
relative viability ([15]; first compound 0.01 µM): 0.664
relative viability ([15]; first compound 0.03162 µM): 0.858
relative viability ([15]; first compound 0.1 µM): 0.507
relative viability ([16]; first compound 0.001 µM): 0.854
relative viability ([16]; first compound 0.003162 µM): 0.754
relative viability ([16]; first compound 0.01 µM): 1.05
relative viability ([16]; first compound 0.03162 µM): 0.875
relative viability ([16]; first compound 0.1 µM): 0.822
relative viability ([17]; first compound 0.001 µM): 1.07
relative viability ([17]; first compound 0.003162 µM): 1.32
relative viability ([17]; first compound 0.01 µM): 1.2
relative viability ([17]; first compound 0.03162 µM): 1.12
relative viability ([17]; first compound 0.1 µM): 0.401
relative viability ([18]; first compound 0.001 µM): 0.44
relative viability ([18]; first compound 0.003162 µM): 0.537
relative viability ([18]; first compound 0.01 µM): 0.467
relative viability ([18]; first compound 0.03162 µM): 0.542
relative viability ([18]; first compound 0.1 µM): 0.282
relative viability ([19]; first compound 0.001 µM): 1
relative viability ([19]; first compound 0.003162 µM): 1.14
relative viability ([19]; first compound 0.01 µM): 1.27
relative viability ([19]; first compound 0.03162 µM): 0.808
relative viability ([19]; first compound 0.1 µM): 0.517
